Data taken from publication PMC6897945, “CytA, a reductase in the cytorhodin biosynthesis pathway, inactivates anthracycline drugs in Streptomyces” (Communications Biology, 2019).
Converted amounts (≈) assume the structure as drawn. Like-named read-outs stand apart in the source and are kept apart here.

Columns and labels:
CytA = test: Enzyme kinetics of CytA (formation of deglycosylation products, anaerobic); assay type: biochemical, Streptomyces sp. SCSIO 1666; settings: substrate of CytA; 0.5 μM CytA, 20 μM NADH, anaerobic
Method: Enzymatic reactions were carried out under anaerobic conditions in an anaerobic workstation (Don Whitley Scientific A45) containing a gas phase of N2/H2/CO2 (80:10: 10%, by vol.). ^1H, ^13C, and 2D (COSY, HMQC, HMBC and NOESY) NMR spectra were recorded at 25 °C with an Avance 700 MHz spectrometer instruments (Bruker). High-resolution mass spectra were obtained with a Maxis quadrupole-time-of-flight mass spectrometer (Bruker).
To validate the in vitro biochemical activities of CytA, we overexpressed and purified this enzyme as a soluble N-terminally His6-tagged protein from E. coli (Fig. 2a). Tris-Cl buffer was made O2 free by boiling, followed by cooling under N2 flow; NADH stock solution (dissolved in Tris-Cl), substrate stock solution (dissolved in DMSO), and enzyme solution (dissolved in Tris-Cl supplemented with 10% glycerin) were subjected to O2 eliminating process in the anaerobic workstations for at least two cycles (40 min for one cycle). CytA enzymatic activity was tested in 50 μL volume containing 50 mM Tris-Cl (pH 8.0), 25 μM substrate, 0.5 μM CytA, and 20 μM NADH, at 37 °C for 30 min. The reaction was quenched with the addition to 2 volumes MeOH. After centrifugation to remove protein, supernatants were analyzed with Agilent HPLC equipment using a Phenomenex Prodigy ODS column S5 (150 × 4.60 mm, 5 μ) and UV detection at 254 and 500 nm. Samples were eluted with a gradient elution of phase A containing 0.1% TFA in ddH2O and phase B containing 100% acetonitrile, at a flow rate of 1 mL/min.
Kinetic analyses of CytA with putative substrates 6–10, daunorubicin, doxorubicin, idarubicin, epirubicin and pirarubicin, involved a reaction volume of 20 μL consisting of 50 mM Tris-Cl (pH 8.0), 0.5 μM CytA, 20 μM NADH, […]
All assays were performed in triplicate and Km and Vmax values were calculated on the basis of curve fitting to the Michaelis-Menten equation: v = Vmax *[S]/(Km + [S]) (Supplementary Fig. 7).
For kinetics of CytA, Origin 9.0 (OriginLab Co.) was used to analyze on the basis of curve fitting to the Michaelis-Menten equation. Experiments were performed in triplicate independently. For antibacterial activity, experiments were performed in triplicate using 96-well plates.

B. subtilis BS01 = test: Antibacterial activity, broth dilution MIC; assay type: cell-based; settings: Bacillus subtilis
Method: (§1) The antibacterial activities of compounds 1–13 were assessed using twofold serial dilutions of antibacterial agents in MH broth, according to previously reported standard methods provided by Clinical and Laboratory Standards Institute (CLSI)[30]. These compounds were tested for their antibacterial activities against Bacillus subtilis BS01, Staphyloccocus aureus ATCC 29213, Staphyloccocus aureus 745524, Bacillus thuringiensis BT01, and Enterococcus faecalis ATCC 29212 using a broth dilution method.

B. thuringiensis BT01 = test: Antibacterial activity, broth dilution MIC; assay type: cell-based; settings: Bacillus thuringiensis
Method: as §1

E. faecalis ATCC 29212 = test: Antibacterial activity, broth dilution MIC; assay type: cell-based; settings: Enterococcus faecalis
Method: as §1

[1] = tested on: Staphylococcus aureus 745524; test: Antibacterial activity, broth dilution MIC; assay type: cell-based
Method: as §1

[2] = tested on: Staphylococcus aureus ATCC 29213; test: Antibacterial activity, broth dilution MIC; assay type: cell-based
Method: as §1

[3] = Cytotoxic activity, MTT method; assay type: cell-based; settings: human
Source text: (§2) All data were obtained in triplicate and are presented as means.

[4] = tested on: A549 human lung cancer cell line; test: Cytotoxic activity, MTT method; assay type: cell-based; settings: A549, read-out: Cytotoxic activities IC50, A549
Source text: as §2

[5] = tested on: HeLa human cervical carcinoma cell line; test: Cytotoxic activity, MTT method; assay type: cell-based; settings: read-out: Cytotoxic activities IC50, HeLa
Source text: as §2

[6] = tested on: HepG2 human hepatocellular carcinoma cell line; test: Cytotoxic activity, MTT method; assay type: cell-based; settings: HepG2, read-out: Cytotoxic activities IC50, HepG2
Source text: as §2

[7] = tested on: MCF-7 human breast adenocarcinoma cell line; test: Cytotoxic activity, MTT method; assay type: cell-based; settings: MCF7, read-out: Cytotoxic activities IC50, MCF-7
Source text: as §2

[8] = tested on: MDA-MB-231 human triple negative breast adenocarcinoma cell line; test: Cytotoxic activity, MTT method; assay type: cell-based; settings: MDA-MB-231, read-out: Cytotoxic activities IC50, MDA-MB-231
Source text: as §2

[9] = tested on: MDA-MB-468 human triple negative breast adenocarcinoma cell line; test: Cytotoxic activity, MTT method; assay type: cell-based; settings: MDA-MB-468, read-out: Cytotoxic activities IC50, MDA-MB-468
Source text: as §2

[10] = tested on: RKO human colorectal carcinoma cell line; test: Cytotoxic activity, MTT method; assay type: cell-based; settings: read-out: Cytotoxic activities IC50, RKO
Source text: as §2

MDA-MB-468 cells = settings: cited from earlier work
[11] = tested on: five gram-positive bacteria; test: Antibacterial activities, set of five gram-positive bacteria; assay type: cell-based; settings: set of five gram-positive bacteria (Table 2)
Method: as §1

[12] = tested on: Streptomyces sp. SCSIO 1666 WT; test: Growth inhibition zone assay; assay type: cell-based; settings: WT strain, Fig. 3
Source text: (§3) We also noted that the ∆cytA mutant strain accumulated small amounts (80~100-fold lower than WT producer) of the immediate biosynthetic precursors of cosmomycins A (3) and B (4). The in vitro antimicrobial activities of compounds 1–13 against a panel of gram-positive bacteria (Table 2) provided some insight into the possible physiological significance of CytA-catalyzed reductions. Furthermore, we had observed that the ΔcytA mutant strain is clearly impaired relative to the WT strain upon addition of 6 or 7 as potential substrates. To evaluate this effect, we probed the sensitivity of Streptomyces sp. SCSIO 1666 to 6 and 7 in an inhibition zone assay (Fig. 3). A clear inhibition zone (16 mm) using the ΔcytA mutant plate was observed when supplemented with 1 μg of 6 or 7. […] That CytA production endows cosmomycin resistance provides strong evidence that the cytA gene directly confers Streptomyces. sp. SCSIO 1666 with the ability to protect itself from the effects by self-resistance to cosmomycins C and D.
(§4) Fig. 3 Sensitivity of Streptomyces sp. SCSIO 1666 toward cosmomycin C (6) and cosmomycin D (7) (1 μg) as determined by growth inhibition zone assays. […] TEXT PRINTED IN THE PICTURE: 6: ΔcytA mutant strain: 16 mm DOUBTS OF THE COPYIST ABOUT THIS PICTURE: 6, ΔcytA mutant strain: the small yellow print reads 16 mm, but it could be 15 or 18 mm / 6: the yellow double arrow marked 16 mm spans the zone around disc 6. The picture prints no measure name, so it may be the inhibition zone diameter or only a scale mark

[13] = tested on: Streptomyces sp. SCSIO 1666 ΔcytA mutant strain; test: Growth inhibition zone assay; assay type: cell-based; settings: ∆cytA mutant strain, Fig. 3
Source text: as §3, §4

[14] = Huvec-12 normal cell line, read-out: Cytotoxic activities IC50, Huvec-12
[15] = L02 normal cell line, read-out: Cytotoxic activities IC50, L02
[16] = B. subtilis BS01, triplicate, read-out: MIC values, BS
[17] = B. thuringiensis BT01, triplicate, read-out: MIC values, BT
[18] = ATCC29212, E. faecalis ATCC 29212, triplicate, read-out: MIC values, EF
[19] = Staphylococcus aureus 745524, triplicate, read-out: MIC values, SA2
[20] = ATCC29213, Staphylococcus aureus ATCC 29213, triplicate, read-out: MIC values, SA1

Structure (SMILES)	Km (CytA)	kcat (CytA)	MIC (B. thuringiensis BT01; BT01, read-out: MIC values, BT)	IC50 [3, 14]	IC50 [3, 15]	IC50 [4]	IC50 [5]	IC50 [6]	IC50 [7]	IC50 [8]	IC50 [9]	IC50 [10]	MIC (B. subtilis BS01; [16])	MIC (B. thuringiensis BT01; [17])	MIC (E. faecalis ATCC 29212; [18])	MIC [1, 19]	MIC [2, 20]	MIC [11]	further results
CC[C@@]1(O)C[C@H](O[C@H]2C[C@H](N(C)C)[C@H](O)[C@H](C)O2)c2c(O)c3c(c(O)c2[C@H]1C(=O)OC)C(=O)c1cccc(O)c1C3=O [Compound 9, ε-rhodomycin]	8.5 µM	0.0055 s⁻¹	4 µg/mL (≈ 6.83 µM)	7.21 µM	14 µM	1.92 µM	1.01 µM	1.91 µM	11.7 µM	6.63 µM	13.5 µM	2.88 µM							MIC (B. subtilis BS01; BS01, read-out: MIC values, BS): 8 µg/mL (≈ 13.7 µM); MIC (E. faecalis ATCC 29212; ATCC29212, read-out: MIC values, EF): 8 µg/mL (≈ 13.7 µM); MIC ([1]; Staphylococcus aureus, 745524, read-out: MIC values, SA2): 4 µg/mL (≈ 6.83 µM); MIC ([2]; Staphylococcus aureus, ATCC29213, read-out: MIC values, SA1): 4 µg/mL (≈ 6.83 µM)
CC[C@@]1(O)CCc2c(O)c3c(c(O)c2[C@H]1O[C@H]1C[C@H](N(C)C)[C@H](O[C@H]2C[C@H](O)[C@H](O[C@H]4CC[C@H](O)[C@H](C)O4)[C@H](C)O2)[C@H](C)O1)C(=O)c1cccc(O)c1C3=O [Compound 4, cosmomycin B]				0.41 µM	0.32 µM	0.021 µM	0.017 µM	0.038 µM	0.65 µM	0.85 µM	0.71 µM	0.089 µM	0.25 µg/mL (≈ 0.324 µM)	0.25 µg/mL (≈ 0.324 µM)	0.03 µg/mL (≈ 0.0389 µM)	0.125 µg/mL (≈ 0.162 µM)	0.25 µg/mL (≈ 0.324 µM)		cytotoxic activity against MDA-MB-468 cells (MDA-MB-468 cells): devoid of activity
CC[C@@]1(O)CCc2c(O)c3c(c(O)c2[C@H]1C(=O)OC)C(=O)c1cccc(O)c1C3=O [Compound 11]													> 32 µg/mL	> 32 µg/mL	> 32 µg/mL	> 32 µg/mL	> 32 µg/mL	> 32 µg/mL	
CC[C@@]1(O)C[C@H](O)c2c(O)c3c(c(O)c2[C@H]1C(=O)OC)C(=O)c1cccc(O)c1C3=O [Compound 10, ε-rhodomycinone]	31.2 µM	0.00233 s⁻¹	> 32 µg/mL	15.3 µM	11.8 µM	33.2 µM	20.2 µM	17.2 µM	37.3 µM	> 50 µM	7.43 µM	18.5 µM	> 32 µg/mL		> 32 µg/mL	> 32 µg/mL	> 32 µg/mL	> 32 µg/mL	activity in growth inhibition zone assay [12]: inactive; activity in growth inhibition zone assay [13]: inactive
